{"source": "patent US11497759B2", "about": "“Repurposcins: targeted inhibitors of mitochondrial biogenesis for eradicating cancer stem cells” (LUNELLA BIOTECH, INC., priority 2017, dated 2022)", "test_system": "MCF-7 breast CSCs", "experiment": "Inhibition of mammosphere-forming activity of MCF-7 breast CSCs", "assay_type": "cell-based, human", "details": "treated for 5 days in mammosphere media, read-out: IC-50 for blocking CSC propagation (mammosphere-forming activity)", "source_text": "The black bars show 2,4-dichlorobenzyl-TPP; the inclined bars show 1-naphthylmethyl-TPP; the dotted bars show 3-methylbenzyl-TPP; the unshaded bars show 2-chlorobenzyl-TPP; and the horizontal lined bars show 2-butene-1,4-bis-TPP. […] Data are represented as mean+/−SEM.", "data": [{"smiles": "C(=CC[P+](c1ccccc1)(c1ccccc1)c1ccccc1)C[P+](c1ccccc1)(c1ccccc1)c1ccccc1", "note": "[2-butene-1,4-bis-TPP]", "values": [{"measurement": "IC50", "value": "< 500", "unit": "nM"}]}]}
